According to ChEMBL document CHEMBL2146378, “Curcumin is an inhibitor of calcium/calmodulin dependent protein kinase II” (Bioorg Med Chem, 2012):

How the values were obtained:
[1] = target: T1, Calcium/calmodulin-dependent protein kinase type II subunit alpha (Homo sapiens, UniProt Q9UQM7); test: Inhibition of autophosphorylated alphaCaMK2 using GST-NR2A as substrate incubated for 1 min prior to substrate addition measured after 1 min
[2] = target: T1, Calcium/calmodulin-dependent protein kinase type II subunit alpha; test: Inhibition of alphaCaMK2 autophosphorylation at Thr286 using [gamma32P]ATP incubated for 30 secs prior to ATP addition measured after 30 secs
[3] = Inhibition of Albino Wistar rat CaMK2 in postsynaptic density fraction using GST-NR2A as substrate incubated for 1 min prior to substrate addition measured after 1 min in presence of EGTA
[4] = Inhibition of Albino Wistar rat CaMK2 in postsynaptic density fraction using GST-NR2A as substrate incubated for 1 min prior to substrate addition measured after 1 min
[5] = Inhibition of Albino Wistar rat CaMK2 in brain cytosolic fraction using GST-NR2A as substrate incubated for 1 min prior to substrate addition measured after 1 min; assay type: tissue-based
[6] = Inhibition of Albino Wistar rat CaMK2 in brain cytosolic fraction using GST-NR2A as substrate incubated for 1 min prior to substrate addition measured after 1 min in presence of EGTA; assay type: tissue-based
[7] = target: T1, Calcium/calmodulin-dependent protein kinase type II subunit alpha; test: Inhibition of alphaCaMK2 using GST-NR2A as substrate incubated for 1 min prior to substrate addition measured after 1 min
[8] = Inhibition of Albino Wistar rat CaMK2 autophosphorylation at Thr286 in brain cytosolic fraction using [gamma32P]ATP incubated for 30 secs prior to ATP addition measured after 30 secs; assay type: tissue-based
[9] = target: T1, Calcium/calmodulin-dependent protein kinase type II subunit alpha; test: Inhibition of autophosphorylated alphaCaMK2 using GST-NR2A as substrate incubated for 1 min prior to substrate addition measured after 1 min in presence of EGTA
[10] = Inhibition of Albino Wistar rat CaMK2 autophosphorylation at Thr286 in postsynaptic density fraction using [gamma32P]ATP incubated for 30 secs prior to ATP addition measured after 30 secs
[11] = target: Calcium/calmodulin-dependent protein kinase type II subunit alpha (Homo sapiens, UniProt Q9UQM7, T286D); test: Inhibition of alphaCaMK2 T286D mutant using GST-NR2A as substrate incubated for 1 min prior to substrate addition measured after 1 min in presence of EGTA
Chain of Calcium/calmodulin-dependent protein kinase type II subunit alpha (Homo sapiens, UniProt Q9UQM7, T286D) (Q9UQM7 whole entry T286D): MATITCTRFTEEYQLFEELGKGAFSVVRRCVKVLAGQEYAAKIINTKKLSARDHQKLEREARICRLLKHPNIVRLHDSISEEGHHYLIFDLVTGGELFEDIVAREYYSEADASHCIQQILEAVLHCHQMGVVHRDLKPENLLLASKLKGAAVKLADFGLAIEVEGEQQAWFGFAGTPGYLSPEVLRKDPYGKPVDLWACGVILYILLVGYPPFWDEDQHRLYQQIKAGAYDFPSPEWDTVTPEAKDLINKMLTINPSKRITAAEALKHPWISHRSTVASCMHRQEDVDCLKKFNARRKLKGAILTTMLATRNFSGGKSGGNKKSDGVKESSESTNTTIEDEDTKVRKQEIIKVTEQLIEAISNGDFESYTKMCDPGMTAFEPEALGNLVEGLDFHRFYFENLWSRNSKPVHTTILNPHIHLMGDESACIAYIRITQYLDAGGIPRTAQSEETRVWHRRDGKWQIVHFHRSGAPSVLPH

T1 sequence (Q9UQM7 whole entry): as the sequence (Q9UQM7 whole entry T286D) above, with D286T counted along it

| Structure (SMILES) | IC50 [1] [µM] | IC50 [2] [µM] | IC50 [3] [µM] | IC50 [4] [µM] | IC50 [5] [µM] | IC50 [6] [µM] | IC50 [7] [µM] | IC50 [8] [µM] | IC50 [9] [µM] | IC50 [10] [µM] | IC50 [11] [µM] |
| --- | --- | --- | --- | --- | --- | --- | --- | --- | --- | --- | --- |
| COc1cc(/C=C/c2cc(/C=C/c3ccc(O)c(OC)c3)on2)ccc1O | 24.4 | 18 | 18.9 | 22.9 | 28.9 | 13.7 | 11.4 | 17.1 | 0.68 | 22.8 | – |
| COc1cc(/C=C/c2cc(/C=C/c3ccc(O)c(OC)c3)n(-c3ccccc3)n2)ccc1O | 79 | 111 | 62 | 103 | 94 | 96 | 37 | 80 | 54 | 68 | – |
| O=C(/C=C/c1ccc(O)cc1)CC(=O)/C=C/c1ccc(O)cc1 [BISDEMETHOXYCURCUMIN] | – | – | – | – | – | – | 37 | – | – | – | – |
| COc1cc(/C=C/c2cc(/C=C/c3ccc(O)c(OC)c3)[nH]n2)ccc1O [CURCUMIN PYRAZOLE] | 6.3 | 6.5 | 0.34 | 3.6 | 4.4 | 0.44 | 1.49 | 16.3 | 0.29 | 7.58 | – |

Continued, values first:

| IC50 [1] [µM] | IC50 [2] [µM] | IC50 [3] [µM] | IC50 [4] [µM] | IC50 [5] [µM] | IC50 [6] [µM] | IC50 [7] [µM] | IC50 [8] [µM] | IC50 [9] [µM] | IC50 [10] [µM] | IC50 [11] [µM] | Structure (SMILES) |
| --- | --- | --- | --- | --- | --- | --- | --- | --- | --- | --- | --- |
| 45 | 33 | 33 | 80 | 112 | 64 | 21 | 143 | 34 | 69 | 37 | COc1cc(/C=C/C(=O)CC(=O)/C=C/c2ccc(O)c(OC)c2)ccc1O (stereo in doubt) [CURCUMIN] |
| – | – | – | – | – | – | 13 | – | – | – | – | COc1cc(/C=C/C(=O)CC(=O)/C=C/c2ccc(O)c(OC)c2)ccc1O (stereo in doubt; 1) [CURCUMIN] |
| – | – | – | – | – | – | 24 | – | – | – | – | COc1cc(/C=C/C(O)=C/C(=O)/C=C/c2ccc(O)cc2)ccc1O [DEMETHOXYCURCUMIN] |
